From patent US20200172489A1, “FLUORESCENT COMPOUND AND AUTOPHAGY DETECTION REAGENT USING SAME” (DOJINDO LABORATORIES, priority 2017, published 2020)
Counter-ions that a name gives are not always drawn.

Experiments:
[1] = pH dependence of fluorescent intensity of the fluorescent compounds; assay type: physicochemical; details: for pH dependence of fluorescent intensity: FIG. 6
[2] = tested on: HeLa cells; assay: Autophagy detection test (4): staining of HeLa cells with Compound 4b and Compound 13, fluorescent microscopy; assay type: cell-based; details: Compound 4b 1 μM and Compound 13 0.1 μM; 3 hours or 6 hours; FIG. 12
Description: (§1) HeLa cells were seeded on a μ-slide 8 well (Ibidi) and incubated in a CO2 incubator at 37° C. overnight. Compound 4b (1 μM) or Compound 13 (0.1 μM) diluted with serum medium was added and incubated for 30 minutes. After washing twice with serum medium, the cells were incubated at 37° C. for 3 hours or 6 hours in an amino acid-free medium of serum containing-medium and observed with a fluorescent microscope.

[3] = tested on: HeLa cells; assay: Autophagy detection test (1): evaluation using flow cytometry; assay type: cell-based; details: 1 μM; starvation condition, 6 hours and 20 hours; FIG. 3
Description: HeLa cells were seeded on a 24 well plate and incubated in a CO2 incubator at 37° C. overnight, 1 μM of Compound 4b diluted with serum medium was added and incubated for 30 minutes. After washing twice with the serum-free medium, a medium free from amino acid and serum was added and the cells were incubated at 37° C. for 6 hours or 20 hours. Cell were washed with PBS once, peeled with 0.25% trypsin-EDTA and used for flow cytometric analysis.

[4] = tested on: HeLa cells; assay: Autophagy detection test (1): fluorescent microscopy of HeLa cells after introducing the compound, with autophagy induced or inhibited; assay type: cell-based; details: for fluorescent intensity in HeLa cells in the presence of Bafilomycin: Bafilomycin (0.1 μM bafilomycin A1), autophagy hardly occurs; for fluorescent intensity in HeLa cells in the presence of Bafilomycin / fluorescent intensity in HeLa cells, control group / fluorescent intensity in HeLa cells under starvation condition / change of fluorescent intensity in HeLa cells when bafilomycin was added under starvation condition: FIG. 7; for fluorescent intensity in HeLa cells, control group: Control (autophagy hardly occurs); for fluorescent intensity in HeLa cells under starvation condition: Starved; for change of fluorescent intensity in HeLa cells when bafilomycin was added under starvation condition: starvation plus bafilomycin
Description: HeLa cells were seeded on a μ-slide 8 well (Ibidi) and incubated in a CO2 incubator at 37° C. overnight. Compound 4b (1 μM) or Compound 6h (0.1 μM) diluted with serum medium was added and incubated for 30 minutes. After washing twice with serum medium, the cells were incubated at 37° C. for 6 hours or 20 hours in an amino acid-free medium of serum containing-medium and observed with a fluorescent microscope. As an autophagy inducing agent, 0.5 μM Rapamycin was used and as an autophagy inhibiting agent, 10 μM chloroquine and 0.1 μM bafilomycin A1 were used.

[5] = tested on: HeLa cells; assay: Autophagy detection test (2): fluorescent microscopy of HeLa cells under starvation condition; assay type: cell-based; details: 0.1 μM; Starve vs Control; incubated 5 hours; FIG. 10
Description: as §1, with “6h diluted with a serum medium” for “4b (1 μM) or Compound 13”, “μM)” for “μM) diluted with serum medium”, “5” for “3 hours or 6”

[6] = tested on: HeLa cells; assay: Autophagy detection test (3): co-staining of HeLa cells with Compound 6h and Compound 11, fluorescent microscopy; assay type: cell-based; details: Compound 6h 1 μM and Compound 11 0.1 μM; 3 hours or 6 hours; FIG. 11
Description: as §1, with “Compound 6h” for “Compound 4b”, “μM) and” for “μM) or”, “Compound 11” for “Compound 13”

Structure (SMILES) | pH dependence of fluorescent intensity [1] | staining pattern in HeLa cells under starvation condition, two compounds introduced together [2] | usefulness for detecting autophagy by flow cytometry [3] | fluorescent intensity in HeLa cells in the presence of Bafilomycin [4] | fluorescent intensity in HeLa cells, control group [4] | fluorescent intensity in HeLa cells, autophagy induced by adding Rapamycin ([4]; Rapamycin & Chloroquine group vs Control, 0.5 μM Rapamycin, 10 μM chloroquine, incubated 6 hours and 20 hours, FIG. 2) | fluorescent intensity in HeLa cells, autophagy induced by starvation culture ([4]; Starved group vs Control, incubated 6 hours and 20 hours, FIG. 2) | fluorescent intensity in HeLa cells under starvation condition ([4]; autophagy induced) | change of fluorescent intensity in HeLa cells when bafilomycin was added under starvation condition [4] | fluorescent intensity in HeLa cells under starvation condition [5] | staining pattern in HeLa cells under starvation condition, two compounds introduced together [6] | shape of fluorescent emission in high-magnification fluorescent microscopic images ([4]; HeLa cells, autophagy induced, FIG. 8, A-1 and A-2) | pH (acidic condition) under which the fluorescent intensity increases ([1]; FIG. 1 / FIG. 9)
CCCCCN1C(=O)c2ccc3c4cccc5c(NCCCCCN)ccc(c6ccc(c2c36)C1=O)c54 [Compound 13, 5-((1,3-dioxo-2-pentyl-2,3-dihydro-1H-benzo[10,5]anthra[2,1,9-def]isoquinolin-8-yl)amino)pentane-1-amine hydrochloric salt] | no pH dependence | granular points co-stained by Compound 4b and Compound 13 |  |  |  |  |  |  |  |  |  |  | 
CCCCCN1C(=O)c2cccc3c(N4CCN(CCN)CC4)ccc(c23)C1=O [Compound 4b, 2-(4-(1,3-dioxo-2-pentyl-2,3-dihydro-1H-benzo[de]isoquinolin-6-yl)piperazin-1-yl)ethane-1-amine hydrochloride salt] |  | granular points stained only by Compound 4b and granular points co-stained by Compound 4b and Compound 13 | useful for detecting autophagy using not only fluorescent microscopy but also flow cytometry | low | low | enhancement of the fluorescent intensities was observed | enhancement of the fluorescent intensities was observed | high | decreased |  |  |  | 
CCCCCN1C(=O)c2cccc3c(NCCCCCN)ccc(c23)C1=O [Compound 6h, hydrochloride salt] | no pH dependence |  |  | low | low |  |  | high | did not decrease | enhancement of the fluorescent intensity was observed | granular points stained only by Compound 6h and granular points co-stained by Compound 6h and Compound 11 | ring-shaped fluorescent emission | 
CCCCCN1C(=O)c2ccc3c4cccc5c(N6CCN(CCN)CC6)ccc(c6ccc(c2c36)C1=O)c54 [Compound 11, 8-(4-(2-aminoethyl)piperazin-1-yl)-2-pentyl-1H-benzo[10,5]anthra[2,1,9-def]isoquinolin-1,3(2H)-dione] |  |  |  |  |  |  |  |  |  |  | granular points co-stained by Compound 6h and Compound 11 |  | ≤ 6
